# Values of other authors as cited in patent publication US7994258B2, “Hyperbranched polymer having nitroxyl group” (Nissan Chemical Industries, Ltd., priority 2007, dated 2011).
# Settings: comparison value, measuring conditions not stated
compound,measurement,value
O=C([O-])CN(CCN(CC(=O)[O-])CC(=O)O)CCN(CC(=O)[O-])CC(=O)O.[Gd+3] [GdDTPA],relaxivity (r1) of comparator,4.0 mM⁻¹ s⁻¹
